The structures appear in SMILES notation.

Test [1] has as its system MDA-MB-231. Nature of the test: Effective concentration of compound with DFMO tested in vitro for ability to inhibit polyamine transport and growth of MDA-MB-231 breast carcinoma cell line. In kind it is functional, cell-based. Conditions: Homo sapiens.
Test [2] is described as follows: Inhibition of SPD uptake by polyamine transporter of MDA-MB-231 breast carcinoma cells. In kind it is cell-based.
Test [3] concerns MDA-MB-231. Put plainly: Effective concentration of compound without DFMO tested in vitro for ability to inhibit polyamine transport and growth of MDA-MB-231 breast carcinoma cell line; Cytotoxic. Format: functional, cell-based. Conditions: Homo sapiens.
The test system of test [4] is MDA-MB-231. Put plainly: Michaelis-Menten constant of compound was determined at MDA-MB-231 cell line mediated by polyamine transporter. In kind it is cell-based. Conditions: Homo sapiens.
The test system of test [5] is MDA-MB-231. Put plainly: Effective concentration of compound with DFMO tested in vitro for ability to inhibit polyamine transport and growth of MDA-MB-231 breast carcinoma cell line; Cytotoxic. In kind it is functional, cell-based. As to conditions: Homo sapiens.

As a reminder, the EC50 is the concentration giving half of the maximal effect. Higher therefore signals a less potent agent. By Ki is commonly meant the equilibrium dissociation constant of an inhibitor or competing ligand from its target. High values mean a looser hold on the target, low ones a stronger hold on the target. With `NCCCNCCCCNCCCNC(=O)CCCCCCCCC(=O)NCCCNCCCCNCCCN`, the EC50 amounted to 9 µM in test [1] and 240 µM in test [3]. The Ki in test [2] is 0.08 µM.
As usually defined, the Km is the concentration of substrate that gives half-maximal velocity. As to `NCCCNCCCCNCCCN`, the Km in test [4] was 2 µM.
As for `NCCCCNCCCN`, the Km in test [4] was determined as 0.11 µM.
Take `CC(=O)NCCCNCCCCNCCCN`: the EC50 in test [1] is > 1000 µM. For the same compound, in test [2], the affinity corresponds to a Ki of 0.18 µM.
In turn, `NCCCNCCCCNCCCNC(=O)CCCCCCCC(=O)NCCCNCCCCNCCCN` came in with an EC50 in test [1] of 3 µM. For the same compound, the Ki in test [2] was found to be 0.07 µM.
The corresponding values for `NCCCNCCCCNCCCNC(=O)CC12CC3CC(C1)CC(CC(=O)NCCCNCCCCNCCCN)(C3)C2` are > 300 µM and 0.06 µM.
For `NCCCNCCCCNCCCNC(=O)CCC(=O)NCCCNCCCCNCCCN`, in test [1], the EC50 worked out at 2 µM. The Ki in test [2] worked out at 0.03 µM.
For `NCCCNCCCCNCCCNS(=O)(=O)c1ccc2cc(S(=O)(=O)NCCCNCCCCNCCCN)ccc2c1`, in that order: 230 µM and 0.06 µM.
With `NCCCNCCCCNCCCNC(=O)CCCCCCCCCCC(=O)NCCCNCCCCNCCCN`, the EC50 in test [1] was determined as 8 µM; in test [3], 53 µM. In addition, the Ki in test [2] stood at 0.03 µM.
The compound `NCCCNCCCCNCCCNC(=O)CCCC(=O)NCCCNCCCCNCCCN` had an EC50 in test [1] of 1.6 µM. In test [2], this compound had a Ki of 0.06 µM.
The corresponding values for `NCCCNCCCCNCCCNC(=O)CCCCCC(=O)NCCCNCCCCNCCCN` are 6 µM and 0.04 µM.
Turning to `NCCCNCCCCNCCCNC(=O)CCCCCCC(=O)NCCCNCCCCNCCCN`, the EC50 in test [1] is 3.7 µM. The inhibition constant (Ki) in test [2] stood at 0.06 µM.
In turn, `NCCCNCCCCNCCCNC(=O)CCCCC(=O)NCCCNCCCCNCCCN` displayed an EC50 in test [1] of 2.2 µM. Moreover, the affinity in test [2], expressed as Ki, was 0.07 µM.
Consider `CCCCCCC(=O)NCCCNCCCCNCCCN`, for which the Ki in test [2] amounted to 0.28 µM. In test [5], the EC50 worked out at 63 µM.
As to `NCCCCN`, in test [4], the Km amounted to 1.28 µM.

Source of the values: ChEMBL document CHEMBL1136018, “Synthesis of bis-spermine dimers that are potent polyamine transport inhibitors” (Bioorg Med Chem Lett, 2002).
